Among the data in ChEMBL document CHEMBL1139461, “Synthesis and characterization of the novel fluorescent prolyl oligopeptidase inhibitor 4-fluoresceinthiocarbamoyl-6-aminocaproyl-L-prolyl-2(S)-(hydroxyacetyl)pyrrolidine” (J Med Chem, 2005) are IC50 values, retold here.

The target in this assay is Prolyl endopeptidase (Sus scrofa, UniProt P23687). The assay can be described thus: Inhibition of pig brain POP.

Broadly, the IC50 is the midpoint of a concentration-inhibition curve. Read a low IC50 as higher potency.

Prolyl endopeptidase, sequence (P23687 whole entry): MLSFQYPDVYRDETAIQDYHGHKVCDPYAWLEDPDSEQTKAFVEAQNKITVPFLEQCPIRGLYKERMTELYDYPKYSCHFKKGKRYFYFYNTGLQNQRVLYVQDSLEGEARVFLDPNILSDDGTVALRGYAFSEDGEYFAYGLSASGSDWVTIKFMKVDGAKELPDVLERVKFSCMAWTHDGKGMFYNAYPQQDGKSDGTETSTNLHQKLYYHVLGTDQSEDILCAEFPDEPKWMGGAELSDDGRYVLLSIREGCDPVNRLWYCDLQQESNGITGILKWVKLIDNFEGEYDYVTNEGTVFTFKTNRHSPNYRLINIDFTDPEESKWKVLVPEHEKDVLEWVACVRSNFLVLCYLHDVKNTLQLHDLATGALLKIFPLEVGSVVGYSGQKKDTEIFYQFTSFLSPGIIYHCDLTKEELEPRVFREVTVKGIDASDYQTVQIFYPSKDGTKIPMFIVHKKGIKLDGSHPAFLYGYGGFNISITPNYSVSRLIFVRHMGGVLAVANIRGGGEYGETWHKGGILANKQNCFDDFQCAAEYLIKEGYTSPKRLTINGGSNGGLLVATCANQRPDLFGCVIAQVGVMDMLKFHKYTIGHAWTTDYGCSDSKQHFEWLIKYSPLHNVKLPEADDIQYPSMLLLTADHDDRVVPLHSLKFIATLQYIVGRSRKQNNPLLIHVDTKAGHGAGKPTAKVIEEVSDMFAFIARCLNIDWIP

Regarding `O=C1OC2(c3ccc(O)cc3Oc3cc(O)ccc32)c2ccc(NC(=S)NCCCCCC(=O)N3CCC[C@H]3C(=O)N3CCC[C@H]3C(=O)CO)cc21`, the IC50 came out at 0.83 nM. The same measure for `O=C1OC2(c3ccc(O)cc3Oc3cc(O)ccc32)c2ccc(NC(=S)NCC(=O)N3CCC[C@H]3C(=O)N3CCC[C@H]3C(=O)CO)cc21`: 180 nM.
